The nature of data set [1]: Heating of crystalline forms, analysed by x-ray powder diffraction. It is filed as physicochemical. The settings on record: for chemical decomposition on heating: heating/drying at about 100° C.; for crystalline form after heating in an oven: about 30 minutes at about 100° C. As for the experimental part: X-ray diffraction data were acquired using a Philips powder X-ray diffractometer, Goniometer model 1050/70 at a scanning speed of 2° per minute, with a CUKα radiation of λ=1.5418 Å. The sample was gently ground and dusted over a zero background quartz plate to give a thin layer.
Forms V and VI convert into modafinil Form I upon gentle heating to about 80° C. or above.
Modafinil Form I may be separated from solvents conventionally by filtering or decanting and then drying.
By Heating Modafinil Forms V or VI A small aliquot of Modafinil Forms V and VI are heated separately, for about 30 minutes, in an oven at about 100° C.

Data set [2] is classed as physicochemical. The settings on record: for crystalline form conversion when suspended in water: time and temperature not stated; for crystalline form after suspension in distilled water: distilled water pH about 5.9, stirred about 24 hours at about 37° C.

The structures appear in SMILES notation.

For `NC(=O)C[S+]([O-])C(c1ccccc1)c1ccccc1` (racemic) [Form I, (±) 2-[(Diphenylmethyl)sulfinyl]acetamide, reference compound], the “crystalline form after drying at elevated temperature” value in data set [1] (dried at a temperature as high as 100° C.) was “without converting to another crystalline or amorphous form”. Further, the “chemical decomposition on heating” value in data set [1] was “without undergoing significant chemical decomposition”.
As to `NC(=O)C[S+]([O-])C(c1ccccc1)c1ccccc1` (racemic) [Form II, (±) 2-[(Diphenylmethyl)sulfinyl]acetamide], the “crystalline form conversion when suspended in water” value in data set [2] is given as “converted into Form I modafinil”.
Consider `NC(=O)C[S+]([O-])C(c1ccccc1)c1ccccc1` (racemic) [Form III, (±) 2-[(Diphenylmethyl)sulfinyl]acetamide], for which, in data set [2], the “crystalline form after suspension in distilled water” value is “determined to be modafinil Form II” and the “crystalline form conversion when suspended in water” value was “converts into modafinil Form II”.
`NC(=O)C[S+]([O-])C(c1ccccc1)c1ccccc1` (racemic) [Form IV, (±) 2-[(Diphenylmethyl)sulfinyl]acetamide]: the “crystalline form after suspension in distilled water” value in data set [2] was “determined to be modafinil Form I”.
For the molecule `NC(=O)C[S+]([O-])C(c1ccccc1)c1ccccc1` (racemic) [Form V, (±) 2-[(Diphenylmethyl)sulfinyl]acetamide], in data set [1], the “crystalline form after heating in an oven” value is “determined to be Form I” and the “chemical decomposition on heating” value is recorded as “without significant decomposition”.
For `NC(=O)C[S+]([O-])C(c1ccccc1)c1ccccc1` (racemic) [Form VI, (±) 2-[(Diphenylmethyl)sulfinyl]acetamide], in data set [1], the “crystalline form after heating in an oven” value is “determined to be Form I” and the “chemical decomposition on heating” value is “without significant decomposition”.
